Measured values published in PMC12526022, “Synthesis of First Copper Metal Complex of C=C Extended Curcuminoid Analogue: Structure, β-Cyclodextrin Association, and Biological Properties” (Molecules, 2025).

How the values were obtained:
yeast α-glucosidase = biological target: T1, yeast α-glucosidase (Saccharomyces cerevisiae, UniProt P53341); test: Inhibition of yeast α-glucosidase (p-nitrophenyl-α-D-glucopyranoside substrate, OD 405 nm); format: biochemical; settings: for D.O. 405 nm / Inhibition (%): mean ± SEM; for IC50: mean ± standard error of the mean, n = 3-5, read-out: Yeast α-glucosidase inhibition, half-maximal inhibitory concentration (IC50)
T1 construct: purchased Sigma Aldrich G5003-100UN
Method: The inhibition of α-glucosidase was evaluated using a previously adapted method. Briefly, a solution (25 µL) of tested samples in DMSO-H2O 1:1 was added to 150 µL of phosphate buffer (PBS, 67 mM, pH 6.8) and incubated at 37 °C for 10 min with 25 µL of reduced glutatione (3 mM in PBS) and 25 µL of α-glucosidase type I solution (0.2 U/mL in PBS, CAS G5003-100UN) (Sigma Aldrich, Toluca, Estado de México, Mexico). Subsequently, 25 µL of the substrate solution (23.2 mM p-nitrophenyl-α-D-glucopyranoside, CAS N1377-1G, in PBS) (Sigma Aldrich, Toluca, Estado de México, Mexico) was added, and the mixture was incubated at 37 °C for 15 min under shaking. The reaction mixture was stopped by the addition of a […] 1M solution (50 µL), followed by agitation for 5 min. […] The percentage of inhibition was calculated according to the following equation:Inhibition (%) = [(Acontrol − Asample)/Acontrol] × 100 where A is the absorbance at 405 nm of the sample and the control.
Table S5. Inhibition of yeast α-glucosidase. Determination of half-maximal inhibitory concentration […]
Values represent the mean of three to five independent experiments ± standard error of the mean.
Data were examined by analysis of variance (ANOVA) followed by Dunnett's test to determine groups with significant differences. Values of p ≤0.05 (*) and p ≤ 0.01 (**) were considered significant differences from the control.

[1] = tested on: PC-3 prostate cancer cells; test: Sulforhodamine B antiproliferative assay, PC-3; format: cell-based; settings: PC-3, 10 µM, vehicle DMSO, 48 h, NA: no activity
Method: (§1) Antiproliferative activity was evaluated by Sulforhodamine B assay against colon cancer (HCT-15), breast cancer (MCF-7), leukaemia ([…]), central nervous system glial (U-251), and prostate cancer (PC-3) cell lines, which the National Cancer Institute supplied. The cell lines were cultured in RPMI-1640 medium supplemented with 10% fetal bovine serum, 2 mM L-glutamine, […] penicillin G, 100 µg/mL streptomycin sulfate, and 0.25 µg/mL amphotericin B Gibco (Thermo Fisher Scientific, Grand Island, NY, USA). They were incubated at 37 °C in an atmosphere of 5% CO2 and 95% humidity. For the assay, cells were suspended in a 0.1% trypsin-EDTA solution (Gibco). Cell viability was counted using a hematocytometer and diluted with medium to achieve the following densities: 5 × 10^4 cells/mL (SKLU-1, K562) and 7.5 × 10^4 cells/mL (U251, PC-3). […]
(§2) After 24 h, the cells were treated with 100 µL of the compounds to be evaluated, previously dissolved in RPMI-1640 medium and 1% DMSO, and then incubated for 48 h at 37 °C in a 5% CO2 atmosphere. […]
(§3) After 48 h, the adherent cells were fixed by adding 50 µL of a cold 50% (m/vol) […] solution and incubated at 4 °C for 60 min. […] The optical density of the treated samples was determined in a Bio Kinetics microplate reader at a wavelength of 515 nm (Synergy HT, BioTek, Winooski, VT, USA). […]

[2] = tested on: HCT-15 colon cancer cells; test: Sulforhodamine B antiproliferative assay, HCT-15; format: cell-based; settings: HCT-15, 10 µM, vehicle DMSO, 48 h, NA: no activity
Method: as §1, §2, §3

[3] = tested on: MCF-7 breast cancer cells; test: Sulforhodamine B antiproliferative assay, MCF-7; format: cell-based; settings: MCF-7, 10 µM, vehicle DMSO, 48 h, NA: no activity
Method: as §1, §2, §3

SKLU-1 lung cancer cells = test: Sulforhodamine B antiproliferative assay, SKLU-1; format: cell-based; settings: SKLU-1, 10 µM, vehicle DMSO, 48 h, NA: no activity
Method: as §1, §2, §3

[4] = tested on: COS-7 monkey kidney fibroblast; test: Sulforhodamine B assay, COS7 healthy cells; format: cell-based; settings: 10 µM, vehicle DMSO, 48 h
[5] = Solubility in polar solvents (observation); format: physicochemical
α-glucosidase = biological target: α-glucosidase; set-up: method as in PMID 16387392, doi:10.1016/j.kjs.2024.100312; settings: literature values for comparison; read-out: α-glucosidase inhibitory activity IC50; cited from earlier work

T1 sequence (P53341 whole entry): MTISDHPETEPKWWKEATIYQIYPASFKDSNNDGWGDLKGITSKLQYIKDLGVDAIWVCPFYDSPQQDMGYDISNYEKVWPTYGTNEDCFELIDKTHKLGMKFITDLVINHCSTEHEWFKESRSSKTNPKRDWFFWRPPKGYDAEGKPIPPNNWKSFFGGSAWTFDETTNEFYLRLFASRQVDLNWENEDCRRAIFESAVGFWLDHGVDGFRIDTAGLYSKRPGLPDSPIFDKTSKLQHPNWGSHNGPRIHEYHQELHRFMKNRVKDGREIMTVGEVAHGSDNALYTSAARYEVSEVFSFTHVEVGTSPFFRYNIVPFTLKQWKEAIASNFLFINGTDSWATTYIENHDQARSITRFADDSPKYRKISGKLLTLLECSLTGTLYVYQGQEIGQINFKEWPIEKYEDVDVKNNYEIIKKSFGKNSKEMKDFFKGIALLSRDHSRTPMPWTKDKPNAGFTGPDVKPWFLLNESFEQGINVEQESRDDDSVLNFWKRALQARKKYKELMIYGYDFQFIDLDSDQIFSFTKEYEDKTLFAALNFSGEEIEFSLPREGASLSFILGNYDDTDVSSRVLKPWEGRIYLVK

SMILES	inhibition at 10 µM (yeast α-glucosidase)	inhibition at 100 µM (yeast α-glucosidase)	D.O. 405 nm (yeast α-glucosidase; 1 µM)	D.O. 405 nm (yeast α-glucosidase; 10 µM)	D.O. 405 nm (yeast α-glucosidase; 100 µM)	inhibition at 17.78 µM (yeast α-glucosidase)	inhibition at 31.62 µM (yeast α-glucosidase)	inhibition at 56.23 µM (yeast α-glucosidase)	D.O. 405 nm (yeast α-glucosidase; 17.78 µM)	D.O. 405 nm (yeast α-glucosidase; 31.62 µM)	D.O. 405 nm (yeast α-glucosidase; 56.23 µM)	IC50 (yeast α-glucosidase)	Cellular growth inhibition (%) [4]	Solubility in polar solvents (in words) [5]	IC50 (α-glucosidase)	also measured
OC[C@H]1O[C@@H]2O[C@H]3[C@H](O)[C@@H](O)[C@@H](O[C@H]4[C@H](O)[C@@H](O)[C@@H](O[C@H]5[C@H](O)[C@@H](O)[C@@H](O[C@H]6[C@H](O)[C@@H](O)[C@@H](O[C@H]7[C@H](O)[C@@H](O)[C@@H](O[C@H]8[C@H](O)[C@@H](O)[C@@H](O[C@H]1[C@H](O)[C@H]2O)O[C@@H]8CO)O[C@@H]7CO)O[C@@H]6CO)O[C@@H]5CO)O[C@@H]4CO)O[C@@H]3CO [BCD, β-cyclodextrin]	1.11 ± 4.12%	2.31 ± 3.94%	1.275±0.028	1.261±0.022	1.246±0.019											inhibition at 1 µM (yeast α-glucosidase): 0.2 ± 3.02%
O=C(/C=C(O)/C=C/C=C/c1ccccc1)/C=C/C=C/c1ccccc1 [Compound 2]	7.61 ± 2.8%	86.9 ± 7.53%		1.205±0.051	0.174±0.105	16.9 ± 3.75%	31.6 ± 6.86%	66.3 ± 10.2%	1.084±0.067	0.894±0.105	0.446±0.147	45.6 µM	7.35%	poor solubility		inhibition at 10 µM ([1]; read-out: Cellular growth inhibition (%)): 11.8%; inhibition at 10 µM ([2]; Homo sapiens, read-out: Cellular growth inhibition (%)): 15.9%; inhibition at 10 µM ([3]; Homo sapiens, MCF7, read-out: Cellular growth inhibition (%)): 11.5%; inhibition at 10 µM (SKLU-1 lung cancer cells; Homo sapiens, SK-LU-1, read-out: Cellular growth inhibition (%)): 7.45%
O=C(C=CC=Cc1ccccc1)C=C([O-])C=CC=Cc1ccccc1.O=C(C=CC=Cc1ccccc1)C=C([O-])C=CC=Cc1ccccc1.[Cu+2] [Compound 3]			1.314±0.041	1.226±0.025	1.071±0.044							> 100 µM	15.49%	poor solubility		α-glucosidase inhibitory activity (in words) (yeast α-glucosidase): no inhibition activity at high concentrations; Inhibition (%) (yeast α-glucosidase; 1 µM): -2.68±1.55%; Inhibition (%) (yeast α-glucosidase; 10 µM): 4.11±1.43%; Inhibition (%) (yeast α-glucosidase; 100 µM): 16.19 ± 3.18%; Cellular growth inhibition (%) [1]: 1.95%; Cellular growth inhibition (%) [2]: 12.04%; Cellular growth inhibition (%) [3]: 12.35%; Cellular growth inhibition (%) (SKLU-1 lung cancer cells): 0.58%
O=c1c(O)c(-c2ccc(O)c(O)c2)oc2cc(O)cc(O)c12 [Quercetin, quercetin, reference compound]	16.2 ± 2.95%			1.142±0.064		36.9 ± 1.16%	59.1 ± 0.88%	72.2 ± 1.55%	0.861±0.044	0.556±0.019	0.376±0.016					inhibition at 5.62 µM (yeast α-glucosidase): 6.31 ± 2.5%; D.O. 405 nm (yeast α-glucosidase; 5.62 µM): 1.276±0.063
O=C(/C=C/c1ccc(O)cc1)CC(=O)/C=C/c1ccc(O)cc1 [bisdemetoxicurcumin]															90.6 µM	
COc1cc(/C=C/C(O)=C/C(=O)/C=C/c2ccc(O)cc2)ccc1O [demetoxicurcumin]															82.4 µM	
